pIC50: −log10 of the molar value. Counter-ions that a name gives are not always drawn. Like-named read-outs stand apart in the source and are kept apart here.
How the values were obtained:
[1] = biological target: T1, Human fibrinogen receptor (αIIbβ3) (Homo sapiens, UniProt P05106+P08514); experiment: Purified IIb/IIIa receptor assay (solid phase receptor assay, competition with biotinylated vitronectin); format: binding; conditions: purified receptor from outdated platelets; 1 nM biotinylated vitronectin; highest concentration tested 1.0 x 10^-4 M
T1 construct: Human fibrinogen receptor (αIIbβ3) was purified from outdated platelets; from tissue; host or cells: outdated (human) platelets
Text: PURIFIED IIb/IIIa RECEPTOR ASSAY
Human fibrinogen receptor (αIIbβ3) was purified from outdated platelets. (Pytela, R., Pierschbacher, M.D., Argraves, S., Suzuki, S., and Rouslahti, E. "Arginine-Glycine-Aspartic acid adhesion receptors", Methods in Enzymology 144(1987):475-489.) Human vitronectin was purified from fresh frozen plasma as described in Yatohgo, T., Izumi, M., Kashiwagi, H., and Hayashi, M., "Novel purification of vitronectin from human plasma by heparin affinity chromatography," Cell Structure and Function 13(1988):281-292. Biotinylated human vitronectin was prepared by coupling NHS-biotin from Pierce Chemical Company (Rockford, IL) to purified vitronectin as previously described. (Charo, I.F., Nannizzi, L., Phillips, D.R., Hsu, M.A., Scarborough, R.M., "Inhibition of fibrinogen binding to GP IIb/IIIa by a GP IIIa peptide", J. Biol. Chem. 266(3)(1991): 1415-1421.) Assay buffer, OPD substrate tablets, and RIA grade BSA were obtained from Sigma (St. Louis, MO). Anti-biotin antibody was obtained from Calbiochem (La Jolla, CA). Linbro microtiter plates were obtained from Flow Labs (McLean, VA). ADP reagent was obtained from Sigma (St. Louis, MO).
This assay is essentially the same reported in Niiya, K., Hodson, E., Bader, R., Byers-Ward, V. Koziol, J.A., Plow, E.F. and Ruggeri, Z.M., "Increased surface expression of the membrane glycoprotein IIb/IIIa complex induced by platelet activation: Relationships to the binding of fibrinogen and platelet aggregation", Blood 70(1987):475-483. The purified human fibrinogen receptor (αIIbβ3) was diluted from stock solutions to 1.0 µg/mL in Tris-buffered saline containing 1.0 mM Ca^++, Mg^++, and Mn^++, pH 7.4 (TBS^+++). The diluted receptor was immediately transferred to Linbro microtiter plates at 100 µL/well (100 ng receptor/well). The plates were sealed and incubated overnight at 4°C to allow the receptor to bind to the wells. All remaining steps were at room temperature. The assay plates were emptied and 200 µL of 1% RIA grade BSA in TBS^+++ (TBS^+++/BSA) were added to block exposed plastic surfaces. Following a 2 hour incubation, the assay plates were washed with TBS^+++ using a 96 well plate washer. Logarithmic serial dilution of the test compound and controls were made starting at a stock concentration of 2 mM and using 2 nM biotinylated vitronectin in TBS^+++/BSA as the diluent. This premixing of labeled ligand with test (or control) ligand, and subsequent transfer of 50 µL aliquots to the assay plate was carried out with a CETUS Propette robot; the final concentration of the labeled ligand was 1 nM and the highest concentration of test compound was 1.0 x 10^-4 M. The competition occurred for two hours after which all wells were washed with a plate washer as before. Affinity purified horseradish peroxidase labeled goat anti-biotin antibody was diluted 1:3000 in TBS^+++/BSA and 125 µL were added to each well. After 30 minutes, the plates were washed and incubated with […] substrate in 100 mM/L citrate buffer, pH 5.0. The plate was read with a microtiter plate reader at a wavelength of 450 nm and when the maximum-binding control wells reached an absorbance of about 1.0, the final A450 were recorded for analysis. The data were analyzed using a macro written for use with the EXCEL™ spreadsheet program. The mean, standard deviation, and %CV were determined for duplicate concentrations. The mean A450 values were normalized to the mean of four maximum-binding controls (no competitor added)(B-MAX). The normalized values were subjected to a four parameter curve fit algorithm, [Robard et al., Int. […]

[2] = biological target: T2, Human vitronectin receptor (αvβ3) (Homo sapiens, UniProt P05106+P06756); experiment: Vitronectin adhesion assay (solid phase receptor assay, competition with biotinylated vitronectin); format: binding
T2 construct: Human vitronectin receptor (αvβ3) was purified from human placenta; from tissue; host or cells: human placenta
Procedure: VITRONECTIN ADHESION ASSAY
Human vitronectin receptor (αvβ3) was purified from human placenta as previously described [Pytela et al., Methods in Enzymology, 144:475-489 (1987)]. Human vitronectin was purified from fresh frozen plasma as previously described [Yatohgo et al., Cell Structure and Function, 13:281-292 (1988)]. Biotinylated human vitronectin was prepared by coupling NHS-biotin from Pierce Chemical Company (Rockford, IL) to purified vitronectin as previously described [Charo et al., J. Biol. Chem., 266(3):1415-1421 (1991)]. Assay buffer, OPD substrate tablets, and RIA grade BSA were obtained from Sigma (St. Louis, MO). Anti-biotin antibody was obtained from Calbiochem (La Jolla, CA). Linbro microtiter plates were obtained from Flow Labs (McLean, VA). ADP reagent was obtained from Sigma (St. Louis, MO).
This assay was essentially the same as previously reported [Niiya et al., Blood, 70:475-483 (1987)]. The purified human vitronectin receptor (αvβ3) was diluted from stock solutions to 1.0 µg/mL in Tris-buffered saline containing 1.0 mM Ca^++, Mg^++, and Mn^++, pH 7.4 (TBS^+++). The diluted receptor was immediately transferred to Linbro microtiter plates at 100 µL/well (100 ng receptor/well). The plates were sealed and incubated overnight at 4°C to allow the receptor to bind to the wells. All remaining steps were at room temperature. The assay plates were emptied and 200 µL of 1% RIA grade BSA in TBS^+++ (TBS^+++/BSA) were added to block exposed plastic surfaces. Following a 2 hour incubation, the assay plates were washed with TBS^+++ using a 96 well plate washer. Logarithmic serial dilution of the test compound and controls were made starting at a stock concentration of 2 mM and using 2 nM biotinylated vitronectin in TBS^+++/BSA as the diluent. This premixing of labeled ligand with test (or control) ligand, and subsequent transfer of 50 µL aliquots to the assay plate was carried out with a CETUS Propette robot; the final concentration of the labeled ligand was 1 nM and the highest concentration of test compound was 1.0 x 10^-4 M. The competition occurred for two hours after which all wells were washed with a plate washer as before. Affinity purified horseradish peroxidase labeled goat anti-biotin antibody was diluted 1:3000 in TBS^+++/BSA and 125 µL were added to each well. After 30 minutes, the plates were washed and incubated with OPD/H2O2 substrate in 100 mM/L Citrate buffer, pH 5.0. The plate was read with a microtiter plate reader at a wavelength of 450 nm and when the maximum-binding control wells reached an absorbance of about 1.0, the final A450 were recorded for analysis. The data were analyzed using a macro written for use with the EXCEL™ spreadsheet program. The mean, standard deviation, and %CV were determined for duplicate concentrations. The mean A450 values were normalized to the mean of four maximum-binding controls (no competitor added)(B-MAX). The normalized values were subjected to a four parameter curve fit algorithm [Rodbard et al., Int.

[3] = purified receptor from human placenta; 1 nM biotinylated vitronectin; highest concentration tested 1.0 x 10^-4 M; read-out: AvB3 IC50

`CC(C)OC(=O)NC(Cc1ccc(NC(=O)c2cccc(Nc3n[nH]c(N)n3)c2)cc1)C(=O)O` (racemic) [Example 103, (±) 4-[[[3-[3-amino-1H-1,2,4-triazol-5-yl)amino]-phenyl]carbonyl]amino]-N-[(1-methylethoxy) carbonyl]phenylalanine, trifluoroacetate salt] gave a pIC50 [1] of 5.44 and a pIC50 [2, 3] of 6.57.

`CC(C)OC(=O)NC(Cc1ccc(NC(=O)c2cccc(Nc3noc(N)n3)c2)cc1)C(=O)O` (racemic) [Example 104, (±) 4-[[[3-[(5-amino-1,2,4-oxadiazol-3-yl)amino]-phenyl]carbonyl]amino]-N-[(1-methylethoxy)carbonyl]phenylalanine, trifluoroacetate salt] gave a pIC50 [1] of 5.80 and a pIC50 [2, 3] of 6.30.

Work on `CCCCS(=O)(=O)N[C@@H](Cc1ccc(NC(=O)c2cc(NC3=NCCCCC3)cc(C(F)(F)F)c2)cc1)C(=O)O` [Example 6, N-(butylsulfonyl)-4-[[[3-[(3,4,5,6-tetrahydro-2H-azepin-7-yl)-amino]-5-(trifluoromethyl)phenyl]carbonyl]-amino]phenylalanine, trifluoroacetate salt] yielded a pIC50 [1] of 7.31 and a pIC50 [2, 3] of 9.29.

Compound `CCCCS(=O)(=O)N[C@@H](Cc1ccc(NC(=O)c2cccc(NC3=NCCCCC3)c2)cc1)C(=O)O` [Example 10, N-(butylsulfonyl)-4-[[[3-[(3,4,5,6-tetrahydro-2H-azepin-7-yl)-amino]phenyl]carbonyl]amino]phenylalanine, trifluoroacetate salt] has a pIC50 [1] of 7.57 and a pIC50 [2, 3] of 8.93.

In the case of `CCOC(=O)CCc1ccc(CNC(=O)c2cccc(C#N)c2)cc1` [Example 12, ethyl 4-[[[[3-(cyano)phenyl]-carbonyl]amino]methyl]benzenepropanoate], the pIC50 [1] was 4.16 and the pIC50 [2, 3] was less than 4.00.

`N=C(N)c1cccc(C(=O)NCc2ccc(CCC(=O)O)cc2)c1` [Example 19, 4-[[[[3-(aminoiminomethyl)phenyl]carbonyl]amino]methyl]benzenepropanoic acid, trifluoroacetate salt] gave a pIC50 [1] of 5.75 and a pIC50 [2, 3] of less than 4.00.

With `NC(=O)Nc1cccc(C(=O)Nc2ccc(CCC(=O)O)cc2)c1` [Example 24, 4-[[[3-[(aminocarbonyl)amino]phenyl]carbonyl]amino]benzenepropanoic acid] the pIC50 [1] was 5.34 and the pIC50 [2, 3] was 5.91.

Work on `O=C(O)CCc1ccc(NC(=O)c2cccc(NC(=O)NCc3ccccc3)c2)cc1` [Example 28, 4-[[[3-[[[(phenylmethyl)amino]carbonyl]amino]phenyl]carbonyl]amino]benzenepropanoic acid] yielded a pIC50 [1] of 5.00 and a pIC50 [2, 3] of 6.26.

`N=C(N)Nc1cccc(C(=O)NCc2ccc(CCC(=O)O)cc2)c1` [Example 29, 4-[[[[3-[(aminoiminomethyl)amino]phenyl]carbonyl]amino]methyl]benzenepropanoic acid, trifluoroacetate salt] showed a pIC50 [1] of 5.89 and a pIC50 [2, 3] of 5.40.

For `CC(CC(=O)O)c1ccc(NC(=O)c2cccc(NC(=N)N)c2)cc1` (stereo not drawn) [Example 31, 4-[[[3-[(aminoiminomethyl)amino]phenyl]. carbonyl]amino]-β-methylbenzenepropanoic acid, trifluoroacetate salt], the pIC50 [1] was 7.18 and the pIC50 [2, 3] was 6.94.

`N=C(N)Nc1cccc(C(=O)Nc2ccc(C(CC(=O)O)c3ccccc3)cc2)c1` (stereo not drawn) [Example 33, 4-[[[3-[(aminoiminomethyl)amino]phenyl]carbonyl]amino]-β-phenylbenzenepropanoic acid, trifluoroacetate salt] gave a pIC50 [1] of 8.13 and a pIC50 [2, 3] of 7.13.

Compound `CCOC(=O)C(Cc1ccc(NC(=O)c2cccc(NC(=N)N)c2)cc1)NC(C)=O` (centres unmarked) [Example 34, N-acetyl-4-[[[3-[(aminoiminomethyl)amino]phenyl)carbonyl]amino]phenylalanine ethyl ester, trifluoroacetate salt] has a pIC50 [1] of 5.66 and a pIC50 [2, 3] of 7.34.

`CCCCS(=O)(=O)NC(Cc1ccc(NC(=O)c2cccc(NC(=N)N)c2)cc1)C(=O)OCC` (centres unmarked) [Example 41, trifluoroacetate salt] showed a pIC50 [1] of 5.24 and a pIC50 ([2]; read-out: AvB3 IC50; purified receptor from human placenta; 1 nM biotinylated vitronectin; highest concentration tested 1.0 x 10^-4 M) of 5.97.

For `CCOC(=O)C(Cc1ccc(NC(=O)c2cccc(NC(=N)N)c2)cc1)NC(=O)OC(C)(C)C` (centres unmarked) [Example 44, trifluoroacetate salt], the pIC50 [1] was 5.37 and the pIC50 [2, 3] was 6.92.

`N=C(N)Nc1cccc(C(=O)Nc2ccc(CC(NC(=O)c3ccccc3)C(=O)O)cc2)c1` (centres unmarked) [Example 47, trifluoroacetate salt] gave a pIC50 [1] of 7.29 and a pIC50 [2, 3] of 8.23.

With `CS(=O)(=O)NC(Cc1ccc(NC(=O)c2cccc(NC(=N)N)c2)cc1)C(=O)O` (centres unmarked) [Example 48, trifluoroacetate salt] the pIC50 [1] was 7.81 and the pIC50 [2, 3] was 9.20.

Work on `CCOC(=O)NC(Cc1ccc(NC(=O)c2cccc(NC(=N)N)c2)cc1)C(=O)O` (centres unmarked) [Example 49, trifluoroacetate salt] yielded a pIC50 [1] of 7.50 and a pIC50 [2, 3] of 8.96.

Compound `CC(C)OC(=O)NC(Cc1ccc(NC(=O)c2cccc(N=C(N)N)c2)cc1)C(=O)O` (centres unmarked) [Example 50, trifluoroacetate salt] has a pIC50 [1] of 7.66 and a pIC50 [2, 3] of 9.10.

Compound `N=C(N)Nc1cccc(C(=O)Nc2ccc(CC(NS(=O)(=O)c3ccccc3)C(=O)O)cc2)c1` (centres unmarked) [Example 51, trifluoroacetate salt] has a pIC50 [1] of 9.15 and a pIC50 [2, 3] of 9.20.
